Assay results: patent publication US9688683B2, “Substituted condensed pyrimidine compounds” (GRÜNENTHAL GMBH, priority 2013, dated 2017)

target: human PDE4B1 (Homo sapiens (Human), UniProt Q07343); assay: cAMP HTRF assay to determine the activity of hPDE4B1; assay type: biochemical; conditions: human recombinant PDE4B1 expressed in Sf9 cells; cAMP 40 nM; N=1-2, n=2; read-out: PDE4B IC50-value
Description: A: Determination of the PDE4B IC50 Values with a cAMP HRTF® Assay to Determine the Activity of hPDE4B1
The inhibiting effect of the compounds on the enzyme activity of human PDE4B1 is measured by the quantification of 5′-AMP, which is formed from 3′,5′-adenosine monophosphate (cAMP). Human recombinant enzyme, expressed in Sf9 cells, and the HTRF (homogeneous time-resolved fluorescence) detection method are used in the assay.
The test compound or water (control) is mixed with the human recombinant PDE4B1 enzyme (4.8 U) in a buffer consisting of 44.4 mM tris-HCl, 5.28 mM MgCl2, 2.64 mM DTT and 0.044% Tween 20 (pH 7.8). After adding the cAMP enzyme substrate (final concentration 40 nM) the mixture is incubated for 30 minutes at room temperature. Then a fluorescence acceptor (Dye2 marked with cAMP), a fluorescence donor (anti-cAMP antibody marked with a europium cryptate) and the non-specific phosphodiesterase inhibitor IBMX (3-isobutyl-1-methylxanthine; final concentration 1 mM) are added. After 60 minutes the fluorescence transfer, which correlates with the amount of remaining cAMP, is measured with a microplate reader (Rubystar, BMG) at λex=337 nm, λem=620 nm and λem=665 nm. The enzyme activity is calculated from the quotient formed from the measured signal at 665 nm and that at 620 nm. The result is expressed as the percentage inhibition of enzyme activity of the control (without PDE4 inhibitor) (literature: N. Saldou et al., Comparison of recombinant human PDE4 isoforms: interaction with substrate and inhibitors, Cell. Signal. Vol. 10, No. 6, 427-440, 1998). The enzyme is omitted for measurement of the basal control.

Sequence of human PDE4B1 (Q07343 whole entry): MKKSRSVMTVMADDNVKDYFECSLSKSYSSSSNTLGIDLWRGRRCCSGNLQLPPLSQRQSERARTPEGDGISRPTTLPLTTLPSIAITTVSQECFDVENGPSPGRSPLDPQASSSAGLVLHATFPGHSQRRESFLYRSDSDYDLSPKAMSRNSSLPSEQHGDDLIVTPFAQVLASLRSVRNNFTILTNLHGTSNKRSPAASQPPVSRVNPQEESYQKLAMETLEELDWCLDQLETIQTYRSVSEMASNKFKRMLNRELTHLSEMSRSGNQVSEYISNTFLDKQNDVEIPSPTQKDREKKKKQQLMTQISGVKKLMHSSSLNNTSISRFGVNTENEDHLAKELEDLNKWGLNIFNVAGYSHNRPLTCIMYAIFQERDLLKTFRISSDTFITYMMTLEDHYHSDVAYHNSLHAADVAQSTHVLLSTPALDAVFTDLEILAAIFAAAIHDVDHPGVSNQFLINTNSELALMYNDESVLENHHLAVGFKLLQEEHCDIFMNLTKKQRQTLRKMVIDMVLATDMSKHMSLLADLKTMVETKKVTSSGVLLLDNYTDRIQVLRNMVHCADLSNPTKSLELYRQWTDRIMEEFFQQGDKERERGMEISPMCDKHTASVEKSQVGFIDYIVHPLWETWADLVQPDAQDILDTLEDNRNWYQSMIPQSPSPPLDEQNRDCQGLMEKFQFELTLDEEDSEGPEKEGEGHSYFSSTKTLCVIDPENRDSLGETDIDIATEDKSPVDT

Row | Compound | IC50 [µM]
1 | Cc1nc(-c2ccc(F)c(F)c2)nc2c1ccn2-c1ccc(C(=O)O)cc1 [Compound 26, 4-(2-(3,4-Difluorophenyl)-4-methyl-7H-pyrrolo[2,3-d]pyrimidin-7-yl)benzoic acid] | < 1
2 | COc1ccc(-c2ncc3c(n2)N(c2cccc(OCC(=O)N(C)C)c2)CC32CC2)cc1F [Compound 78, 2-(3-(2′-(3-fluoro-4-methoxyphenyl)spiro[cyclopropane-1,5′-pyrrolo[2,3-d]pyrimidin]-7′(6′H)-yl)phenoxy)-N,N-dimethylacetamide] | 1 to 10
3 | COc1ccc(-c2nc(S(C)(=O)=O)c3ccn(-c4cccc(OCC(=O)N(C)C)c4)c3n2)cc1F [Compound 50, 2-(3-(2-(3-fluoro-4-methoxyphenyl)-4-(methylsulfonyl)-7H-pyrrolo[2,3-d]pyrimidin-7-yl)phenoxy)-N,N-dimethylacetamide] | 1 to 10
4 | CCc1nc(-c2cccc(S(C)(=O)=O)c2)nc2c1ccn2-c1cccc(OCC(=O)N(C)C)c1 [Compound 81, 2-(3-(4-ethyl-2-(3-(methylsulfonyl)phenyl)-7H-pyrrolo[2,3-d]pyrimidin-7-yl)phenoxy)-N,N-dimethylacetamide] | < 1

Further lines, results first:

Row | IC50 [µM] | Compound
5 | < 1 | CCc1nc(-c2ccc(OC)c(F)c2)nc2c1CCN2c1ccc(CC(=O)O)cc1 [Compound 8, 2-(4-(4-Ethyl-2-(3-fluoro-4-methoxyphenyl)-5H-pyrrolo[2,3-d]pyrimidin-7(6H)-yl)phenyl)-acetic acid]
6 | < 1 | COc1ccc(-c2nc(C)c3ccn(-c4ccc(CC(=O)O)cc4)c3n2)cc1Cl [Compound 16, 2-(4-(2-(3-Chloro-4-methoxyphenyl)-4-methyl-7H-pyrrolo[2,3-d]pyrimidin-7-yl)phenyl)acetic acid]
7 | 1 to 10 | COc1ccc(-c2nc(SC)c3ccn(-c4ccc(CC(=O)O)cc4)c3n2)cc1F [Compound 69, 2-(4-(2-(3-fluoro-4-methoxyphenyl)-4-(methylthio)-7H-pyrrolo[2,3-d]pyrimidin-7-yl)phenyl)acetic acid]
8 | 1 to 10 | CCc1nc(-c2ccc(OC)c(F)c2)nc2c1CCN2c1ccc(C(=O)O)cc1 [Compound 6, 4-(4-ethyl-2-(3-fluoro-4-methoxyphenyl)-5H-pyrrolo[2,3-d]pyrimidin-7(6H)-yl)benzoic acid]
9 | < 1 | Cc1nc(-c2ccc(Cl)s2)nc2c1ccn2-c1ccc(C(=O)O)cc1 [Compound 38, 4-(2-(5-Chlorothiophen-2-yl)-4-methyl-7H-pyrrolo[2,3-d]pyrimidin-7-yl)benzoic acid]
10 | < 1 | COc1ccc(-c2nc(C)c3c(n2)N(c2ccc(CC(=O)O)cc2)CC3)cc1Cl [Compound 20, 2-(4-(2-(3-Chloro-4-methoxyphenyl)-4-methyl-5H-pyrrolo[2,3-d]pyrimidin-7(6H)-yl)phenyl)acetic acid]

same assay, conditions: inhibition of PDE4B at a test substrate concentration of 3 μM

Row | Compound | inhibition at 3 µM [%]
11 | CCc1nc(-c2cncnc2)nc2c1ccn2-c1cccc(OCC(=O)N(C)C)c1 [Compound 97, 2-(3-(4-Ethyl-2-(pyrimidin-5-yl)-7H-pyrrolo[2,3-d]pyrimidin-7-yl)phenoxy)-N,N-dimethylacetamide] | 67
12 | CCc1nc(-c2ccc(F)c(Cl)c2)nc2c1CCN2c1ccc(CC(=O)O)cc1 [Compound 99, 2-(4-(2-(3-Chloro-4-fluorophenyl)-4-ethyl-5H-pyrrolo[2,3-d]pyrimidin-7(6H)-yl)phenyl)acetic acid] | 54
13 | CCc1nc(-c2ccc(OC)cc2)nc2c1ccn2-c1cccc(OCC(=O)N(C)C)c1 [Compound 94, 2-(3-(4-Ethyl-2-(4-methoxyphenyl)-7H-pyrrolo[2,3-d]pyrimidin-7-yl)phenoxy)-N,N-dimethylacetamide] | 54

Second part, the compound after the results:

Row | inhibition at 3 µM [%] | Compound
14 | 47 | CCc1nc(-c2ccc(F)c(OC)c2)nc2c1CCN2c1ccc(CC(=O)O)cc1 [Compound 86, 2-(4-(4-Ethyl-2-(4-fluoro-3-methoxyphenyl)-5H-pyrrolo[2,3-d]pyrimidin-7(6H)-yl)phenyl)acetic acid]
15 | 51 | CCc1nc(-c2ccc3ncsc3c2)nc2c1ccn2-c1cccc(OCC(=O)N(C)C)c1 [Compound 88, 2-(3-(2-(Benzo[d]thiazol-6-yl)-4-ethyl-7H-pyrrolo[2,3-d]pyrimidin-7-yl)phenoxy)-N,N-dimethylacetamide]
16 | 58 | CCc1nc(-c2ccc(OC(F)F)cc2)nc2c1CCN2c1ccc(CC(=O)O)cc1 [Compound 90, 2-(4-(2-(4-(Difluoromethoxy)phenyl)-4-ethyl-5H-pyrrolo[2,3-d]pyrimidin-7(6H)-yl)phenyl)acetic acid]
